Measured values taken from the supplement of paper PMC10627819.

Assays:
[1] = test system: S. pneumoniae D39V; test: fitness (endpoint OD595 vs no drug) (fraction); higher = more growth
In short: (§1)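 Fitness expresses the optical density reached at the stationary-phase transition as a fraction of the robust mean of no-drug control wells. It is capped at 1. Measurements were OD595 every 30 min for 14 h at 37 °C after inoculation of 384-well plates at OD595 0.01 (30 µl, or 55 µl for S. pneumoniae), minus the first reading.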

[2] = test system: S. aureus DSM 20231; test: as above
In short: as §1

[3] = test system: S. pneumoniae D39V; test: Bliss interaction score (quartile over a dose matrix) (fitness difference); higher = more antagonism (negative = synergy)
In short: (§2)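 Each OD595 reading at entry into stationary phase was scaled to the robust mean of the untreated wells on its plate, with a ceiling of 1. These ratios define fitness, and single-drug fitness was inferred from combinations. The Bliss score compares observed fitness with the product-based expectation and is reported as quartiles across all replicate types, technical, biological and donor/recipient.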

[4] = test system: S. aureus DSM 20231; test: as above
In short: as §2

[5] = test system: B. subtilis 168; test: as above
In short: as §2

[6] = test system: S. aureus Newman; test: as above
In short: as §2

[7] = test system: B. subtilis 168; test: fitness (endpoint OD595 vs no drug) (fraction); higher = more growth
In short: as §1
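Throughout, for Bliss interaction score (quartile over a dose matrix): first quartile when negative (synergy) and third quartile when positive (antagonism).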
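Throughout, for fitness (endpoint OD595 vs no drug): OD595 on entry to stationary phase over no-drug wells; at most 1.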

CCC[C@@H]1C[C@@H](C(=O)N[C@@H]([C@H]2O[C@H](SC)[C@H](O)[C@@H](O)[C@H]2O)[C@@H](C)O)N(C)C1 [Lincomycin] + Cn1nnc(-c2ccc(-c3ccc(N4C[C@H](CO)OC4=O)cc3F)cn2)n1 [Tedizolid]
fitness
Conditions | partner 0.03125 µg/mL | partner 0.0625 µg/mL | partner 0.125 µg/mL | partner 0.25 µg/mL | partner 0.5 µg/mL
[1], first compound 0.2 µg/mL | 0.732 | 0.796 | 0.665 | – | –
[1], first compound 0.215 µg/mL | – | – | 0.754 | 0.731 | 0.345
[1], first compound 0.4 µg/mL | 0.647 | 0.716 | 0.611 | – | –
[1], first compound 0.43 µg/mL | – | – | 0.661 | 0.629 | 0.277
[1], first compound 0.8 µg/mL | 0.549 | 0.67 | 0.57 | – | –
[1], first compound 0.86 µg/mL | – | – | 0.209 | 0.162 | 0.0655
[2], first compound 0.1 µg/mL | – | 0.806 | 0.683 | 0.364 | –
[2], first compound 0.2 µg/mL | – | 0.568 | 0.434 | 0.229 | –
[2], first compound 0.4 µg/mL | – | 0.27 | 0.182 | 0.115 | –

Conditions | Bliss interaction score
[3] | 0.138
[4] | -0.114
[5] | 0.0845
[6] | -0.129

O=C(N[C@H](CO)[C@H](O)c1ccc([N+](=O)[O-])cc1)C(Cl)Cl [Chloramphenicol] + CCC[C@@H]1C[C@@H](C(=O)N[C@@H]([C@H]2O[C@H](SC)[C@H](O)[C@@H](O)[C@H]2O)[C@@H](C)O)N(C)C1 [Lincomycin]
fitness, [2]
Conditions | first compound 0.75 µg/mL | first compound 1.5 µg/mL | first compound 3 µg/mL
partner 0.1 µg/mL | 0.729 | 0.57 | –
partner 0.2 µg/mL | 0.563 | 0.378 | –
partner 0.4 µg/mL | 0.215 | 0.167 | 0.0709

Conditions | Bliss interaction score
[3] | 0.105
[4] | 0.0462
[5] | 0.11
[6] | -0.167

COc1cc(Cc2cnc(N)nc2N)cc(OC)c1OC [Trimethoprim] + CC1=C\[C@@H](O)CC(=O)Cc2nc(co2)C(=O)N2CCC=C2C(=O)O[C@H](C(C)C)[C@H](C)/C=C/C(=O)NC\C=C\1 [Virginiamycin M1]
fitness, one replicate
Conditions | partner 0.0625 µg/mL | partner 0.125 µg/mL | partner 0.25 µg/mL | partner 0.5 µg/mL | partner 1 µg/mL
[2], first compound 0.125 µg/mL | 0.597 | 0.715 | – | 0.7 | 0.541
[2], first compound 0.25 µg/mL | – | – | – | 0.573 | 0.626
[2], first compound 0.5 µg/mL | – | – | – | 0.155 | 0.204
[7], first compound 0.1 µg/mL | 0.85 | 0.855 | 0.991 | – | –
[7], first compound 0.125 µg/mL | 0.738 | 0.722 | 0.71 | – | –
[7], first compound 0.2 µg/mL | 0.755 | 0.808 | 0.865 | – | –
[7], first compound 0.4 µg/mL | 0.57 | 0.483 | 0.576 | – | –
[7], first compound 1 µg/mL | 0.509 | 0.267 | 0.282 | – | –
[7], first compound 2 µg/mL | 0.408 | 0.285 | 0.377 | – | –

fitness
Conditions | first compound 0.125 µg/mL | first compound 0.25 µg/mL | first compound 0.5 µg/mL | first compound 1 µg/mL
[2], partner 0.0625 µg/mL | – | 0.576 | 0.0684 | 0.0383
[2], partner 0.125 µg/mL | – | 0.584 | 0.0768 | 0.0445
[2], partner 0.25 µg/mL | 0.682 | 0.618 | 0.119 | 0.0595
[7], partner 0.0625 µg/mL | – | – | 0.585 | –
[7], partner 0.125 µg/mL | – | 0.704 | 0.471 | –
[7], partner 0.25 µg/mL | – | – | 0.557 | –

Conditions | Bliss interaction score
[3] | 0.0652
[4] | -0.0966
[5] | 0.0852
[6] | 0.0354

CCC[C@@H]1C[C@@H](C(=O)N[C@@H]([C@H]2O[C@H](SC)[C@H](O)[C@@H](O)[C@H]2O)[C@@H](C)O)N(C)C1 [Lincomycin] + CCCCCCCCCC(=O)N[C@@H]1[C@H]([C@@H]([C@H](O[C@H]1OC2=C3C=C4C=C2OC5=C(C=C(C=C5)[C@H]([C@H]6C(=O)N[C@@H](C7=C(C(=CC(=C7)O)OC8[C@H]([C@H]([C@@H]([C@H](O8)CO)O)O)O)C9=C(C=CC(=C9)[C@H](C(=O)N6)NC(=O)[C@@H]4NC(=O)[C@@H]1C2=CC(=CC(=C2)OC2=C(C=CC(=C2)[C@H](C(=O)N[C@H](CC2=CC(=C(O3)C=C2)Cl)C(=O)N1)N)O)O)O)C(=O)O)O[C@H]1[C@@H]([C@H]([C@@H]([C@H](O1)CO)O)O)NC(=O)C)Cl)CO)O)O [Teicoplanin]
fitness, [2], main component drawn
Conditions | partner 0.1562 µg/mL | partner 0.3125 µg/mL | partner 0.625 µg/mL
first compound 0.1 µg/mL | 0.913 | 0.979 | ≥ 1
first compound 0.2 µg/mL | 0.825 | 0.821 | 0.941

main component drawn
Conditions | Bliss interaction score
[3] | -0.0397
[4] | 0.118
[5] | -0.111
[6] | 0.179

O=C(N[C@H](CO)[C@H](O)c1ccc([N+](=O)[O-])cc1)C(Cl)Cl [Chloramphenicol] + CC(=O)NC[C@H]1CN(c2ccc(N3CCOCC3)c(F)c2)C(=O)O1 [Linezolid]
fitness, [2]
Conditions | first compound 0.75 µg/mL | first compound 1.5 µg/mL | first compound 3 µg/mL
partner 0.125 µg/mL | 0.609 | 0.321 | 0.11
partner 0.25 µg/mL | 0.353 | 0.227 | 0.0855
partner 0.5 µg/mL | 0.128 | 0.119 | 0.0711

[2], partner 1 µg/mL, one replicate
Conditions | fitness
first compound 0.75 µg/mL | 0.0506
first compound 1.5 µg/mL | 0.0474
first compound 3 µg/mL | 0.0396

Conditions | Bliss interaction score
[3] | 0.0462
[4] | -0.152
[5] | -0.141
[6] | -0.112

CCC[C@@H]1C[C@@H](C(=O)N[C@@H]([C@H]2O[C@H](SC)[C@H](O)[C@@H](O)[C@H]2O)[C@H](C)Cl)N(C)C1 [Clindamycin] + COc1cc(Cc2cnc(N)nc2N)cc(OC)c1OC [Trimethoprim]
fitness
Conditions | first compound 0.0312 µg/mL | first compound 0.0625 µg/mL | first compound 0.125 µg/mL | first compound 0.25 µg/mL
[2], partner 0.125 µg/mL | 0.268 | 0.0676 | 0.0245 | –
[2], partner 0.25 µg/mL | – | 0.125 | 0.0812 | –
[2], partner 0.5 µg/mL | – | 0.0734 | 0.0599 | –
[2], partner 1 µg/mL | 0.124 | 0.0694 | 0.0452 | –
[7], partner 0.25 µg/mL | – | 0.352 | 0.233 | 0.083
[7], partner 0.5 µg/mL | – | 0.222 | 0.101 | 0.0589

fitness, [7], one replicate
Conditions | partner 0.1 µg/mL | partner 0.125 µg/mL | partner 0.2 µg/mL | partner 0.25 µg/mL | partner 0.4 µg/mL | partner 0.5 µg/mL | partner 1 µg/mL | partner 2 µg/mL
first compound 0.0039 µg/mL | – | 0.663 | – | 0.563 | – | 0.518 | – | –
first compound 0.0078 µg/mL | – | 0.603 | – | 0.511 | – | 0.481 | – | –
first compound 0.0156 µg/mL | – | 0.596 | – | 0.54 | – | 0.531 | – | –
first compound 0.0625 µg/mL | 0.461 | 0.38 | 0.271 | – | 0.174 | – | 0.041 | 0.0649
first compound 0.125 µg/mL | 0.256 | 0.179 | 0.172 | – | 0.0828 | – | 0.031 | 0.0548
first compound 0.25 µg/mL | 0.126 | 0.0411 | 0.0757 | – | 0.0475 | – | 0.0278 | 0.0626

Conditions | Bliss interaction score
[3] | 0.0411
[4] | 0.0511
[5] | -0.144
[6] | 0.196
